{
  "source": "paper PMC8689225",
  "about": "“Cardiac ryanodine receptor N-terminal region biosensors identify novel inhibitors via FRET-based high-throughput screening” (The Journal of Biological Chemistry, 2021)",
  "target": "T1, mouse RyR2 NTR (Mus musculus, UniProt E9Q401, K30C/K441C, form not given)",
  "T1 sequence (E9Q401 1-547 K30C/K441C)": "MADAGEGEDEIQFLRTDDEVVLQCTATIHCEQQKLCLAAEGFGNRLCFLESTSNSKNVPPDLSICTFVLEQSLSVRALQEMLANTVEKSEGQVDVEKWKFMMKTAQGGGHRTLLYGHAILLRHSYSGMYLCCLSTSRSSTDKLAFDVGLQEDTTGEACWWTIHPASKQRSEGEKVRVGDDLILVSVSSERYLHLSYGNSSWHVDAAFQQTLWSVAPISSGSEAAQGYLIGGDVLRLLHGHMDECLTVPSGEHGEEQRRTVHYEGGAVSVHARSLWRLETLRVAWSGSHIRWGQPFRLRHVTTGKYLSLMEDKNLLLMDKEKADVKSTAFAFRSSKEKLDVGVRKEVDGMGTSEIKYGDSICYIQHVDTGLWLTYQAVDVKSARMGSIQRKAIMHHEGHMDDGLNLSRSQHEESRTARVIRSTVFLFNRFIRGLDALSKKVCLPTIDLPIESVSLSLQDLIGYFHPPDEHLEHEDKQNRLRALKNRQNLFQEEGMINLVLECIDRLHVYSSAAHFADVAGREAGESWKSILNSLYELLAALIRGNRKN",
  "experiment": "FLT-FRET dose-response with AC-NTR biosensor",
  "format": "binding",
  "conditions": "AC-NTR biosensor",
  "excerpt": "The NTR of mouse RyR2 (residues 1–547) was cloned and expressed as previously described ([27]). The DNA construct contains a 6×His tag, a maltose-binding protein (MBP) tag, and a tobacco etch virus (TEV) protease cleavage site. The seven native solvent-exposed cysteine residues were substituted with alanine residues, and two constructs were engineered with Cys substitutions at surface residues R383 and K441 (in the B and C domains, respectively; termed BC) and at K30 and K441 (in the A and C domains, respectively; termed AC) for labeling with spectroscopic probes such as appropriate donor–acceptor fluorophores for FRET (for the purpose of this report, these are considered the WT forms of AC and BC). A variant of the BC construct corresponding to the disease-associated mutant (R420Q) was also prepared. For this site-directed mutagenesis work, we used the QuikChange (Stratagene) and Phusion High-Fidelity PCR (Thermo Fisher Scientific) kits. The WT-NTR, R420Q-NTR, AC- and BC-NTR, AC- and BC-R420Q-NTR protein constructs were expressed in Escherichia coli Rosetta (DE3) pLacI cells at 18 °C and purified with a protocol adapted from previously published work ([26]). An amylose column was first applied after the cells were lysed by ultrasonication. The protein in the elution was then cleaved using TEV protease. The cleaved crude protein went through the second amylose column to separate from the MBP and then followed by a Superdex S-200 size exclusion column in a buffer consisting of 250 mM KCl, 10 mM HEPES, and 14 mM β-mercaptoethanol (pH 7.4). The NTR protein (3 μM) was then incubated in 10 mM HEPES, 250 mM KCl (pH 7.4, 2 h, 21 °C) with the fluorescent probes Alexa Fluor 488 maleimide (AF488, donor; 40 μM) and Alexa Fluor 568 maleimide (AF568, acceptor; 60 μM). The maleimide of the dye reacts with the thiols the Cys residues engineered into NTR, forming a covalently labeled protein. The Alexa dyes were added last to the reaction mixture, from 10 mM DMSO stock solutions. This reaction is not selective to one site (K30C or K441C), and we anticipate that there is a mixed population with K30C or K441C labeled with either AF488 (donor) or AF568 (acceptor). We focused on maximizing the fraction containing donor–acceptor pairs, thus maximizing FRET efficiency and the precision for detecting a change in structure as an indication that a compound interacts with the NTR biosensor. The labeling efficiency was determined by comparing the molar concentration of the bound dye, determined from UV-Vis absorbance, to the protein concentration, determined from gel densitometry. Essentially complete labeling was confirmed from electrospray ionization mass spectrometry. CD spectra of the WT-NTR and mutant R420Q-NTR constructs before and after labeling were recorded using a JASCO J-815 CD spectrometer (JASCO), confirming similar folding (Fig. S1).\nThe 1536-well assay plates were prepared as described in our previous reports ([21]). The LOPAC (Sigma-Aldrich) collection received in 96-well plates was reformatted into 384-well polypropylene intermediate plates (Greiner Bio-One) using a multichannel liquid handler, BioMek FX (Beckman Coulter), then transferred to 384-well Echo Qualified source plates (Labcyte Inc). Assay plates were prepared as previously described ([20]). On screening days, these plates were thawed out and were loaded with labeled NTR (5 μl, 20 nM final concentration) using a Multidrop Combi automated sample dispenser.\nHTS measurements were conducted in a prototype top-read FLT plate reader (FLT-PR, Fluorescence Innovations, Inc), which reads each 1536-well plate in ∼3 min ([63], [64]). AF488 donor fluorescence was excited with a 473 nm microchip laser from Concepts Research Corporation, and the emission signal was split into two channels by a dichroic mirror and acquired with 517 ± 10 nm (channel 1) and 535 ± 7 nm band-pass filters (channel 2) (Semrock). […]",
  "data": [
    {"smiles": "CC(=O)O[C@H]1C[C@@]2(C)[C@@H](C[C@@H](O)[C@H]3[C@@]4(C)CC[C@@H](O)[C@@H](C)[C@@H]4CC[C@@]32C)/C1=C(\\CCC=C(C)C)C(=O)O", "note": "[FA, (2Z)-2-[(3R,4S,5S,8S,9S,10S,11R,13R,14S,16S)-16-acetyloxy-3,11-dihydroxy-4,8,10,14-tetramethyl-2,3,4,5,6,7,9,11,12,13,15,16-dodecahydro-1H-cyclopenta[a]phenanthren-17-ylidene]-6-methylhept-5-enoic acid]", "values": [
      {"measurement": "ΔFLT", "setting": "0 to 100 μM, CPNQ/corbadrine decrease FLT, FA/tacrolimus increase FLT", "value": "≈ 0.1 ns"},
      {"measurement": "EC50", "setting": "read-out: EC50, FRET dose-response, Hill fit, Table S4", "value": 3.8, "unit": "µM"}
    ]}
  ]
}
